For 20 compounds, IC50, K app and ΔTm results are on record in ChEMBL document CHEMBL1144957, “Highly cytotoxic benzo[c]pyrido[2,3,4-kl]acridines” (Bioorg Med Chem Lett, 2003).

The test system of one experiment is PC-3. The experiment is described as follows: In vitro inhibitory concentration against human prostate carcinoma PC-3 cell line using MTT assay after incubation for 72 h. Conditions: PC-3, 72 h. The experiment is classed as functional, cell-based. In general terms: Formazan colour is commonly taken as a measure of viable cells.
Experiment [1] concerns Calf thymus DNA. The experiment is described as follows: Apparent calf thymus DNA-binding constant. Conditions: Bos taurus. The experiment is classed as nucleic-acid assay.
The test system of a further experiment is Nucleic Acid. The experiment is described as follows: Binding to DNA as change in thermal denaturation temperature of poly(dAT)2 DNA. It counts as nucleic-acid assay.
Experiment [2] concerns Calf thymus DNA. The experiment is described as follows: Apparent Calf thymus DNA DNA-binding constant. The experiment is classed as nucleic-acid assay. To be noted: Bos taurus.

In the case of `COc1cc2nc3c(c4c2c(c1OC)N(C(C)=O)CC4)CCc1cc(O)ccc1-3`, in the experiment with PC-3, the IC50 (in general, the concentration that gives 50% inhibition) is greater than 1000 nM.
Same read-out and setting: for `COc1ccc2c(c1)CCc1c-2nc2cc(OC)c(OC)c3c2c1CCN3C(C)=O` the value was greater than 1000 nM.
For the compound `COc1cc2nc3c(c4c2c(c1OC)NCC4)CCc1cc(O)ccc1-3`, the K app in the experiment on Calf thymus DNA [1] is 1600 M⁻¹. Besides, in the experiment on Nucleic Acid, the ΔTm (in general, the change in melting temperature against a reference sample) was 1.1 °C. This compound yielded an IC50 in the experiment on PC-3 greater than 1000 nM.
As for `COc1cc2nc3c(c4c2c(c1OC)NCC4)CCc1cc(OCCCN2CCN(C)CC2)ccc1-3`, the K app in the experiment on Calf thymus DNA [1] stood at 4.98e+06 M⁻¹. In addition, the ΔTm in the experiment with Nucleic Acid was determined as 7.5 °C. This compound showed an IC50 in the experiment on PC-3 of 19.9 nM.
In the case of `COc1cc2nc3c(c4c2c(c1OC)N(C(C)=O)CC4)CCc1cc(OCCCN2CCN(C)CC2)ccc1-3`, the K app in the experiment with Calf thymus DNA [2] was 2800 M⁻¹. In the experiment with Nucleic Acid, the ΔTm was 0.9 °C. The compound also yielded an IC50 in the experiment with PC-3 of 11.2 nM.
Take `COc1cc2nc3c(c4c2c(c1OC)N(C(=O)CN1CCN(C)CC1)CC4)CCc1ccccc1-3`: the K app in the experiment on Calf thymus DNA [1] is less than 50000 M⁻¹. In addition, in the experiment with Nucleic Acid, the ΔTm was 0 °C. Besides, the IC50 with PC-3 was greater than 1000 nM.
Consider `COc1ccc2c(c1)-c1nc3cc(OC)c(OC)c4c3c(c1CC2)CCN4C(=O)CN1CCN(C)CC1`, for which, in the experiment with Calf thymus DNA [1], the K app was less than 50000 M⁻¹. The shift in melting temperature (ΔTm) in the experiment with Nucleic Acid worked out at 0.9 °C. The IC50 with PC-3 is greater than 1000 nM.
As for `COc1ccc2c(c1)CCc1c-2nc2cc(OC)c(OC)c3c2c1CCN3`, the K app in the experiment with Calf thymus DNA [1] was determined as 3000 M⁻¹. The ΔTm with Nucleic Acid is 0 °C. Moreover, the IC50 in the experiment with PC-3 is greater than 1000 nM.
The matching figures for `COc1cc2nc3c(c4c2c(c1OC)NCC4)CCc1cc(OCCCN)ccc1-3`: 6.86e+06 M⁻¹, 11.9 °C and greater than 1000 nM.
In the experiment with PC-3, `COc1cc2nc3c(c4c2c(c1OC)N(C(C)=O)CC4)CCc1ccccc1-3` gave an IC50 greater than 1000 nM.
Take `COc1cc2nc3c(c4c2c(c1OC)N(C(C)=O)CC4)CCc1cc(OCCN)ccc1-3`: the K app in the experiment with Calf thymus DNA [1] was 4200 M⁻¹. Besides, in the experiment with Nucleic Acid, the ΔTm amounted to 2.1 °C. The IC50 with PC-3 was greater than 1000 nM.
For the compound `COc1cc2nc3c(c4c2c(c1OC)NCC4)CCc1cc(OCCN)ccc1-3`, the K app in the experiment on Calf thymus DNA [1] worked out at 2.01e+06 M⁻¹. Also, the ΔTm with Nucleic Acid is 12.1 °C. Also, in the experiment on PC-3, the IC50 was greater than 1000 nM.
The matching figures for `COc1cc2nc3c(c4c2c(c1OC)N(C(=O)CN1CCN(C)CC1)CC4)CCc1cc(OCCN)ccc1-3`: 4.51e+06 M⁻¹, 11.9 °C and greater than 1000 nM.
Turning to `COc1ccc2c(c1)CCc1c-2nc2cc(OC)c(OC)c3c2c1CCN3C(=O)CN1CCN(C)CC1`, in the experiment with Calf thymus DNA [1], the K app is less than 50000 M⁻¹. Moreover, the ΔTm in the experiment with Nucleic Acid was determined as 0.9 °C. The compound also gave an IC50 with PC-3 greater than 1000 nM.
As to `COc1cc2nc3c(c4c2c(c1OC)N(C(C)=O)CC4)CCc1cc(OCCCN)ccc1-3`, in the experiment on Calf thymus DNA [1], the K app turned out to be 6300 M⁻¹. Also, the ΔTm in the experiment with Nucleic Acid was found to be 3.1 °C. Besides, the IC50 with PC-3 was greater than 1000 nM.
In the same order, the values of `COc1cc2nc3c(c4c2c(c1OC)NCC4)CCc1ccccc1-3` are 3600 M⁻¹, 0 °C and greater than 1000 nM.
In the same order, the values of `COc1cc2nc3c(c4c2c(c1OC)N(C(=O)CN1CCN(C)CC1)CC4)CCc1cc(OCCCN2CCN(C)CC2)ccc1-3` are 3.04e+06 M⁻¹, 0.9 °C and greater than 1000 nM.
As for `COc1ccc2c(c1)-c1nc3cc(OC)c(OC)c4c3c(c1CC2)CCN4C(C)=O`, in the experiment with PC-3, the IC50 is greater than 1000 nM.
Consider `COc1ccc2c(c1)-c1nc3cc(OC)c(OC)c4c3c(c1CC2)CCN4`, for which, in the experiment on Calf thymus DNA [1], the K app worked out at 2400 M⁻¹. The ΔTm in the experiment on Nucleic Acid came to 0 °C. In the experiment on PC-3, this compound returned a 50% inhibitory concentration (IC50) greater than 1000 nM.
As for `COc1cc2nc3c(c4c2c(c1OC)N(C(=O)CN1CCN(C)CC1)CC4)CCc1cc(OCCCN)ccc1-3`, in the experiment on Calf thymus DNA [1], the K app is 6.66e+06 M⁻¹. Also, the ΔTm in the experiment with Nucleic Acid was found to be 11.9 °C. Moreover, 5.1 nM corresponded to half-maximal inhibition in the experiment with PC-3 (IC50).
